Columns and labels:
[1] = Sweetness tasting by a panel of five people, compared with sucrose solution
Procedure: Iso-rebaudioside A from the x-ray crystallography sample of Example 3 was dissolved in water at a concentration of 1000 ppm, and was found by a panel of five people to have a sweetness intensity similar to that of a 7% sucrose solution; therefore its sweetness potency was estimated to be 70 times that of sucrose.

[2] = Stability/degradation in aqueous citric acid or citrate buffer under heat, followed by HPLC; format: physicochemical
Procedure: […] reactions were set up under identical conditions as in Example 3 except for temperatures: 43° C., 65° C., 75° C., 85° C., and 90° C. reactions were set up and followed by HPLC-MS or UV (210 nm) detection.
Two studies were performed on the pH dependency of the synthesis of iso-rebaudioside A (Cmpd X) from rebaudioside A (Reb A). Rebaudioside A was dissolved at the same concentration in a series of aqueous citric acid solutions, each having a different pH. The solutions were heated to 43° C. for 11 weeks. One study was performed with solutions at pH 2.0, 4.0, and 7.0. The other study was performed with solutions at pH 2.5, 3.0, and 3.5. Results of the two studies are shown in FIGS. 17 and 18, respectively, wherein Reb A stands for rebaudioside A and Cmpd X stands for iso-rebaudioside A. In FIG. 17, the concentration of iso-rebaudioside A at pH 2 peaks at week 9 and decreases afterwards.

[3] = cited from earlier work; for stability under acidic conditions at 60° C.: pH 2.4 to 2.6, 60° C.; for stability under acidic conditions at 100° C.: pH 2.4 to 2.6, 100° C., yields hydrolysis byproducts

| SMILES | sweetness intensity, equivalent sucrose solution ([1]; 1000 ppm in water, panel of five people) [% sucrose solution] | sweetness potency relative to sucrose ([1]; estimated from 1000 ppm vs 7% sucrose) | degradation in acidic solution ([2]; pH 2) | time of peak concentration before decrease (degradation) ([2]; pH 2) [week] | stability under acidic conditions at 60° C. [3] | stability under acidic conditions at 100° C. [3] | degradation in acidic solution ([2]; aqueous citric acid pH 2, 43° C., after week 9) | hydrolysis at elevated temperatures ([2]; citrate buffer pH 2, 43° C. to 90° C., HPLC-MS) |
| --- | --- | --- | --- | --- | --- | --- | --- | --- |
| CC1=CC23CCC4C(C)(C(=O)OC5OC(CO)C(O)C(O)C5O)CCCC4(C)C2CCC1(OC1OC(CO)C(O)C(OC2OC(CO)C(O)C(O)C2O)C1OC1OC(CO)C(O)C(O)C1O)C3 (stereo not shown) [iso-rebaudioside A] | ~7 | 70 times that of sucrose | degraded/hydrolyzed into other steviol glycoside isomers | 9 | – | – | – | – |
| C=C1C[C@@]23CC[C@H]4[C@@](C)(CCC[C@@]4(C)C(=O)O[C@@H]4O[C@H](CO)[C@@H](O)[C@H](O)[C@H]4O)[C@@H]2CC[C@]1(O[C@@H]1O[C@H](CO)[C@@H](O)[C@H](O[C@@H]2O[C@H](CO)[C@@H](O)[C@H](O)[C@H]2O)[C@H]1O[C@@H]1O[C@H](CO)[C@@H](O)[C@H](O)[C@H]1O)C3 [rebaudioside A] | – | – | – | – | quite stable | undergo drastic changes | continues to decrease after week 9 | extensive hydrolysis occurred |
| C=C1C[C@@]23CC[C@H]4[C@@](C)(CCC[C@@]4(C)C(=O)O[C@@H]4O[C@H](CO)[C@@H](O)[C@H](O)[C@H]4O)[C@@H]2CC[C@]1(O[C@@H]1O[C@H](CO)[C@@H](O)[C@H](O)[C@H]1O[C@@H]1O[C@H](CO)[C@@H](O)[C@H](O)[C@H]1O)C3 [stevioside] | – | – | – | – | quite stable | undergo drastic changes | – | – |

From patent publication US7964232B2, “Steviol glycoside isomers” (PepsiCo, Inc., priority 2007, dated 2011)
